Source: patent publication US12653190B2, “Heteroaryl-triazole compounds as pesticides” (Bayer Aktiengesellschaft, priority 2020, dated 2026)

What was measured:
Assay type in all cases: in vivo
[1] = system: larvae of the banded cucumber beetle (Diabrotica balteata); test: Diabrotica balteata spray test; settings: 168 h, 100 g/ha (=32 μg/well), after 7 days, wheat seeds, read-out: efficacy (seedling growth)
Procedure: Diabrotica balteata—Spray Test
(§1) • Solvent: 78.0 parts by weight of acetone • 1.5 parts by weight of dimethylformamide • Emulsifier: alkylarylpolyglycol ether
(§2) To produce a suitable preparation of active compound, 1 part by weight of active compound is mixed with the stated amount of solvent, and the concentrate is diluted with water, containing an emulsifier concentration of 1000 ppm, to the desired concentration. Further test concentrations are prepared by dilution with emulsifier containing water.
Soaked wheat seeds (Triticum aestivum) are placed in a multiple well plate filled with agar and some water and are incubated for 1 day to germinate (5 seeds per well). The germinated wheat seeds are sprayed with a test solution containing the desired concentration of the active ingredient. Afterwards each unit is infected with 10-20 larvae of the banded cucumber beetle (Diabrotica balteata).
After 7 days efficacy in % is determined. 100% means all the seedlings have grown up like in the untreated, uninfected control; 0% means none of the seedlings have grown.

[2] = system: fall armyworm larvae (Spodoptera frugiperda); test: Spodoptera frugiperda spray test; settings: in Zea mays, 168 h
Procedure: Spodoptera frugiperda—Spray Test
• Solvent: 78.0 parts by weight acetone • 1.5 parts by weight dimethylformamide • Emulsifier: alkylarylpolyglycol ether
as §2, with “solvents” for “solvent,”, “and” for “and the concentrate”
Maize (Zea mays) leaf sections are sprayed with a preparation of the active ingredient of the desired concentration. Once dry, the leaf sections are infested with fall armyworm larvae (Spodoptera frugiperda). After 7 days mortality in % is determined. 100% means all caterpillars have been killed and 0% means none of the caterpillars have been killed.

[3] = system: larvae of the southern green stink bug (Nezara viridula); test: Nezara viridula spray test; settings: 96 h, after 4 days, barley plants
Procedure: Nezara viridula—Spray Test
as §1, §2
Barley plants (Hordeum vulgare) are sprayed with a test solution containing the desired concentration of the active ingredient and are infested with larvae of the southern green stink bug (Nezara viridula).
After 4 days mortality in % is determined. 100% means all the stink bugs have been killed; 0% means none of the stink bugs have been killed.

[4] = system: adult engorged female ticks (Rhipicephalus microplus); test: Rhipicephalus (Boophilus) microplus injection test; settings: 168 h, egg deposition monitored after 7 days, read-out: efficacy (infertile eggs); for pest or weed control at 4 µg/tick: 4 μg/tick injected; for pest or weed control at 20 µg/tick: 20 μg/tick injected
Procedure: Rhipicephalus (Boophilus) microplus—Iniectiontest
• Solvent: dimethyl sulfoxide
To produce a suitable preparation of active compound, 10 mg of active compound are dissolved in 0.5 mL solvent, and the concentrate is diluted with solvent to the desired concentration.
Five adult engorged female ticks (Rhipicephalus microplus) are injected with 1 μL compound solution into the abdomen. The ticks are transferred into replica plates and incubated in a climate chamber.
After 7 days egg deposition of fertile eggs is monitored. Eggs where fertility is not visible are stored in a climate chamber till hatching after about 42 days. An efficacy of 100% means all eggs are infertile; 0% means all eggs are fertile.

Cc1nc([C@H](C)NC(=O)c2cc(OC(C)(C)C#N)cc(C3CC3)c2)n(-c2ncc(C#N)s2)n1 [Example I-90]
pest or weed control at 32 µg/disc, 100 g/ha [1]: 100%

C[C@H](NC(=O)c1cc(CC#N)cc(OC(F)(F)F)c1)c1ncnn1-c1cnc(C#N)cn1 [Example I-57]
mortality at 100 g/ha [2]: 100%

C[C@H](NC(=O)c1cc(C(C)(C)C#N)cc(S(C)(=O)=O)c1)c1ncnn1-c1ncc(C#N)s1 [Example I-55]
mortality at 100 g/ha ([3]; 100 g/ha): 90% | mortality at 500 g/ha [3]: 90% | mortality at 100 g/ha [2]: 100%

C[C@H](NC(=O)c1cc(Br)cc(C(F)(F)c2ccc(F)cc2)c1)c1ncnn1-c1ncc(C#N)s1 [Example I-78]
pest or weed control at 32 µg/disc, 100 g/ha [1]: 100% | mortality at 100 g/ha [2]: 100%

C[C@H](NC(=O)c1cc(Cl)cc(C(=O)C2CC2)c1)c1ncnn1-c1ncc(C#N)s1 [Example I-83]
pest or weed control at 32 µg/disc, 100 g/ha [1]: 100% | mortality at 100 g/ha [2]: 100%

C[C@H](NC(=O)c1cc(Cl)nc(C(C)(C)C#N)c1)c1ncnn1-c1cc(C#N)ncn1 [Example I-75]
pest or weed control at 32 µg/disc, 100 g/ha [1]: 100% | mortality at 500 g/ha [3]: 100% | mortality at 100 g/ha [2]: 100%

C[C@H](NC(=O)c1cc(Cl)cc(C(=O)C2CC2)c1)c1ncnn1-c1cc(C#N)ncn1 [Example I-81]
pest or weed control at 32 µg/disc, 100 g/ha [1]: 100% | mortality at 100 g/ha [2]: 100%

C[C@H](NC(=O)c1cc(Cl)nc(C(C)(C)C#N)c1)c1ncnn1-c1ncc(C#N)s1 [Example I-71]
pest or weed control at 32 µg/disc, 100 g/ha [1]: 100% | mortality at 500 g/ha [3]: 100% | mortality at 100 g/ha [2]: 100%

C[C@H](NC(=O)c1cc(OC(F)(F)F)cc(C(C)(C)C#N)c1)c1nc(C2CC2)nn1-c1cc(C#N)ncn1 [Example I-76]
pest or weed control at 32 µg/disc, 100 g/ha [1]: 100% | mortality at 100 g/ha [2]: 100%

C[C@H](NC(=O)c1cc(OC(C)(C)C#N)cc(C2CC2)c1)c1ncnn1-c1ncc(C#N)s1 [Example I-89]
pest or weed control at 32 µg/disc, 100 g/ha [1]: 100%

C[C@H](NC(=O)c1cc(Br)cc(OCC2CC2(Cl)Cl)c1)c1ncnn1-c1ncc(C#N)s1 (stereo partly shown) [Example I-62]
pest or weed control at 32 µg/disc, 100 g/ha [1]: 100%

C[C@H](NC(=O)c1cc(OC(F)(F)F)cc(C(C)(C)C#N)c1)c1nc(C2CC2)nn1-c1ncc(C#N)s1 [Example I-67]
pest or weed control at 32 µg/disc, 100 g/ha [1]: 100% | mortality at 100 g/ha [2]: 100%

C[C@H](NC(=O)c1cc(OC2CC2)cc(OC(F)(F)F)c1)c1ncnn1-c1cnc(C#N)cn1 [Example I-86]
pest or weed control at 32 µg/disc, 100 g/ha [1]: 100% | mortality at 100 g/ha [2]: 100%

C[C@H](NC(=O)c1cc(Br)cc(OC(C)(C)C#N)c1)c1ncnn1-c1cc(C#N)ncn1 [Example I-85]
mortality at 100 g/ha [2]: 100%

Cc1nc([C@H](C)NC(=O)c2cc(Cl)nc(C(C)(C)C#N)c2)n(-c2ncc(C#N)s2)n1 [Example I-70]
pest or weed control at 32 µg/disc, 100 g/ha [1]: 100% | mortality at 500 g/ha [3]: 100% | mortality at 100 g/ha [2]: 100%

C[C@H](NC(=O)c1cc(Cl)cc(CC#N)c1)c1ncnn1-c1ncc(C#N)s1 [Example I-50]
pest or weed control at 32 µg/disc, 100 g/ha [1]: 100%

C[C@H](NC(=O)c1cc(C(C)(C)C#N)cc(S(C)(=O)=O)c1)c1nc(C2CC2)nn1-c1ncc(C#N)s1 [Example I-93]
pest or weed control at 32 µg/disc, 100 g/ha [1]: 80% | mortality at 100 g/ha [2]: 100%

Cc1nc([C@H](C)NC(=O)c2cc(OCc3ccccc3Cl)cc(C(F)(F)F)c2)n(-c2ccc(C#N)cn2)n1 [Example I-16, 3-[(2-Chlorobenzyl)oxy]-N-{(1S)-1-[1-(5-cyanopyridin-2-yl)-3-methyl-1H-1,2,4-triazol-5-yl]ethyl}(trifluoromethyl)benzamide]
pest or weed control at 4 µg/tick [4]: 100% | pest or weed control at 20 µg/tick [4]: 100%

C[C@H](NC(=O)c1cc(OC2CC2)cc(OC(F)(F)F)c1)c1ncnn1-c1cc(C#N)ncn1 [Example I-87]
pest or weed control at 32 µg/disc, 100 g/ha [1]: 80% | mortality at 100 g/ha [2]: 100%

C[C@H](NC(=O)c1cc(OC(C)(C)C#N)cc(C2CC2)c1)c1ncnn1-c1cc(C#N)ncn1 [Example I-92]
mortality at 100 g/ha [2]: 100%

Cc1nc([C@H](C)NC(=O)c2cc(OC(C)c3ccccc3Cl)cc(C(F)(F)F)c2)n(-c2ccc(C#N)cn2)n1 (stereo partly drawn) [Example I-14, 3-[1-(2-Chlorophenyl)ethoxy]-N-{(1S)-1-[1-(5-cyanopyridin-2-yl)-3-methyl-1H-1,2,4-triazol-5-yl]ethyl}-5-(trifluoromethyl)benzamide]
pest or weed control at 4 µg/tick [4]: 100% | pest or weed control at 20 µg/tick [4]: 100%

C[C@H](NC(=O)c1cc(Br)cc(C(F)(F)c2ccc(F)cc2)c1)c1ncnn1-c1cnc(C#N)cn1 [Example I-77]
pest or weed control at 32 µg/disc, 100 g/ha [1]: 100% | mortality at 100 g/ha [2]: 100%

Cc1nc([C@H](C)NC(=O)c2cc(OCc3ccccc3)cc(C(F)(F)F)c2)n(-c2ccc(C#N)cn2)n1 [Example I-18, 3-(Benzyloxy)-N-{(1S)-1-[1-(5-cyanopyridin-2-yl)-3-methyl-1H-1,2,4-triazol-5-yl]ethyl}-5-(trifluoromethyl)benzamide]
pest or weed control at 4 µg/tick [4]: 100% | pest or weed control at 32 µg/disc, 100 g/ha [1]: 100%

Cc1nc([C@H](C)NC(=O)c2cc(OC(C)c3cccc(Cl)c3)cc(C(F)(F)F)c2)n(-c2ccc(C#N)cn2)n1 (stereo partly drawn) [Example I-12, 3-[1-(3-Chlorophenyl)ethoxy]-N-{(1S)-1-[1-(5-cyanopyridin-2-yl)-3-methyl-1H-1,2,4-triazol-5-yl]ethyl}-5-(trifluoromethyl)benzamide]
pest or weed control at 4 µg/tick [4]: 100% | pest or weed control at 20 µg/tick [4]: 100%

Cc1nc([C@H](C)NC(=O)c2cc(OCc3cccc(Cl)c3)cc(C(F)(F)F)c2)n(-c2ccc(C#N)cn2)n1 [Example I-13, 3-[(3-Chlorobenzyl)oxy]-N-{(1S)-1-[1-(5-cyanopyridin-2-yl)-3-methyl-1H-1,2,4-triazol-5-yl]ethyl}-5-(trifluoromethyl)benzamide]
pest or weed control at 4 µg/tick [4]: 80% | pest or weed control at 20 µg/tick [4]: 100% | pest or weed control at 32 µg/disc, 100 g/ha [1]: 100%

Cc1nc([C@H](C)NC(=O)c2cc(OC3CC3)cc(OC(F)(F)F)c2)n(-c2ncc(C#N)s2)n1 [Example I-88]
pest or weed control at 32 µg/disc, 100 g/ha [1]: 100% | mortality at 100 g/ha [2]: 100%

Cc1nc([C@H](C)NC(=O)c2cc(OCc3ccc(Cl)cc3)cc(C(F)(F)F)c2)n(-c2ccc(C#N)cn2)n1 [Example I-20, 3-[(4-Chlorobenzyl)oxy]-N-{(1S)-1-[1-(5-cyanopyridin-2-yl)-3-methyl-1H-1,2,4-triazol-5-yl]ethyl}-5-(trifluoromethyl)benzamide]
pest or weed control at 4 µg/tick [4]: 100%

C[C@H](NC(=O)c1cc(Br)cc(OCC2CC2(F)F)c1)c1ncnn1-c1ncc(C#N)s1 (stereo partly shown) [Example I-63]
pest or weed control at 32 µg/disc, 100 g/ha [1]: 100%

Cc1nc([C@H](C)NC(=O)c2cc(Cl)cc(C(=O)C3CC3)c2)n(-c2ncc(C#N)s2)n1 [Example I-82]
pest or weed control at 32 µg/disc, 100 g/ha [1]: 100% | mortality at 100 g/ha [2]: 100%

Cc1nc([C@H](C)NC(=O)c2cc(Br)cc(C(F)(F)c3ccc(F)cc3)c2)n(-c2ncc(C#N)s2)n1 [Example I-79]
pest or weed control at 32 µg/disc, 100 g/ha [1]: 100% | mortality at 100 g/ha [2]: 100%

C[C@H](NC(=O)c1cc(Br)cc(C(F)(F)c2ccc(F)cc2)c1)c1ncnn1-c1cc(C#N)ncn1 [Example I-80]
pest or weed control at 32 µg/disc, 100 g/ha [1]: 100% | mortality at 100 g/ha [2]: 100%

CC(=O)Oc1cc(Cl)cc(C(=O)N[C@@H](C)c2ncnn2-c2ccc(C#N)cn2)c1 [Example I-11]
pest or weed control at 4 µg/tick [4]: 80% | pest or weed control at 20 µg/tick [4]: 80%

Cc1nc([C@H](C)NC(=O)c2cc(O)cc(C(F)(F)F)c2)n(-c2ccc(C#N)cn2)n1 [Example I-47, N-{(1S)-1-[1-(5-Cyanopyridin-2-yl)-3-methyl-1H-1,2,4-triazol-5-yl]ethyl}-3-hydroxy-5-(trifluoromethyl)benzamide]
pest or weed control at 4 µg/tick [4]: 100% | pest or weed control at 20 µg/tick [4]: 100%

C[C@H](NC(=O)c1cc(Br)cc(OC2CC2)c1)c1ncnn1-c1ncc(C#N)s1 [Example I-49]
pest or weed control at 32 µg/disc, 100 g/ha [1]: 100% | mortality at 100 g/ha [2]: 100%

C[C@H](NC(=O)c1cc(Cl)nc(C(C)(C)C#N)c1)c1nc(C2CC2)nn1-c1ncc(C#N)s1 [Example I-69]
pest or weed control at 32 µg/disc, 100 g/ha [1]: 100% | mortality at 100 g/ha [2]: 100%

C[C@H](NC(=O)c1cc(Br)cc(OC(C)(C)C#N)c1)c1ncnn1-c1cnc(C#N)cn1 [Example I-84]
mortality at 100 g/ha [2]: 100%
